Test system: 565726-208-R1-J5-PDC complex spheroids, growth inhibition
Assay: Anticancer human tumor 565726-208-R1-J5-PDC patient-derived pancreatic adenocarcinoma cell line growth inhibition [RAS]
Details: for viability, T/C: stronger effect = lower value
Source text: RAS pathway inhibitors in Combinations in Complex Spheroids
A high-throughput screen of multi-cell type tumor spheroids was designed to identify active combinations of RAS pathway inhibitors and targeted small molecules. Complex spheroids include a stromal component modeled by human endothelial cells (HUVEC) and fibroblasts modeled by human mesenchymal stem cells (MSCs). The concentration ranges selected for each drug and investigational agent were based upon clinically achievable concentrations if the clinical Cmax of the agent was known.
Compounds. The drugs and investigational agents: abemaciclib (NSC768073), cobimetinib (NSC768068), divarasib (GDC6063, NSC841802), docetaxel (NSC628503), GDC-1971 (RLY-1971, NSC841576), gemcitabine (NSC613327), inavolisib (NSC800729), ipatasertib (NSC767898), KB-0742 (NSC834161), MRTX-1133 (NSC836407), osimertinib (NSC779217), RMC-4630 (NSC839698), RMC-6236 (NSC851965), RMC-6291 (NSC852671), Ro-3306 (NSC812927), sapanisertib (NSC764658), SN-38 (NSC673596), staurosporine (NSC755774), SY5609 (NSC837396), and tovorafenib (DAY101, NSC766906), were obtained from the National Cancer Institute (NCI) Developmental Therapeutics Program Chemical Repository. The FDA-approved anticancer drug set is available from the NCI Developmental Therapeutics Program. […] The stock solutions were prepared in dimethyl sulfoxide (DMSO, Sigma-Aldrich, St. Louis, MO, cat. D2650) at 800-fold the tested concentration and stored at -70 degrees C prior to their use. All drugs and investigational agents were tested over a range starting from a high concentration at or near the clinical Cmax and decreasing in half-log increments. If the clinical Cmax for an agent had not been determined, the highest concentration tested was 10 microM.
Cell Culture. All cells were maintained in an incubator at 37 degrees C and 5% CO2 with 95% humidity. The PDC lines were cultured according to standard operating procedures established by the NCI PDMR. All PDCs were thawed and cultured in Matrigel-coated flasks prepared with a working solution of 1X Ham's F-12 nutrient mix, without supplementation (Invitrogen, Waltham, MA, cat. 11765054), 100 U/mL penicillin-streptomycin (Invitrogen, cat. 15140122), and 2.5% Matrigel (Corning Inc., Corning, NY, cat. 354248) for the first three passages. The 362531-283-R-J2-PDC and 782815-120-R-J1-PDC lines were cultured in 6C/Colon 1B media, which includes advanced DMEM/F-12 (Thermo Fisher Scientific, cat. 12634028), 10 mM HEPES (Thermo Fisher Scientific, cat. 15630080), 1X GlutaMAX supplement (Thermo Fisher Scientific, cat. 35050061), 0.1 mg/mL primocin (InvivoGen, San Diego, CA, cat. ant-pm-2), 10% defined fetal bovine serum, heat inactivated (HyClone Laboratories Inc., Logan, UT, cat. SH30070.03HI), 50% L-WRN conditioned media (ATCC, cat. CRL-3276), 1.25 mM N-Acetyl-L-cysteine (Sigma-Aldrich, cat. A9165), 10 mM nicotinamide (Sigma-Aldrich, cat. N0636), 1X B-27 supplement (Thermo Fisher Scientific, cat. 17504044), 1X N-2 supplement (Thermo Fisher Scientific, cat. 17502048), 50 ng/mL human EGF (Thermo Fisher Scientific, cat. PHG0311), and 10 microM Y-27632 dihydrochloride (Tocris Bioscience, cat. 1254). The K12877-001-R-J1-PDC line was cultured in 6I media, which includes all 6C/Colon 1B media plus 10 ng/mL human FGF-10 (PeproTech, cat. 100-26), 1 ng/mL human FGF-2 (PeproTech, cat. 100-18B), 1 µM prostaglandin E2 (Tocris Bioscience, cat. 2296), […] hydrocortisone (Sigma-Aldrich, cat. H4001), and […] bovine insulin (Sigma-Aldrich, cat. I6634). The K86415-001-R-J1-PDC line was cultured in 6D media, which includes all 6C/Colon 1B media components minus the L-WRN conditioned media. The 485176-168-R4-J1-PDC was cultured in PANC media, which includes all 6C/Colon 1B media plus 100 ng/mL human FGF-10 (PeproTech, cat. 100-26), 500 nM SB-431542 (Selleckchem, cat. S1067), and 10 nM gastrin (Tocris Bioscience, cat. 3006). […]
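Further: spheroids exposed to compounds for seven days before readout.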
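Wherever viability, T/C is given: 100% = DMSO vehicle control viability.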

In the case of `CCN1CCN(Cc2ccc(Nc3ncc(F)c(-c4cc(F)c5nc(C)n(C(C)C)c5c4)n3)nc2)CC1` + C=CC(=O)N1CCN(c2nc(OCC3CCCN3C)nc3c(F)c(-c4nc(N)cc(C)c4C(F)(F)F)c(Cl)cc23)C(C)C1, the IC50 (curve of first compound, second compound 0.00316 µM) is reported as > 1 µM, the IC50 (curve of first compound, second compound 0.01 µM) is reported as > 1 µM and the IC50 (curve of first compound, second compound 0.0316 µM) is reported as > 1 µM. The IC50 (curve of first compound, second compound 0.1 µM) was > 1 µM, the IC50 (curve of first compound, second compound 0.316 µM) was > 1 µM and the IC50 (curve of first compound, second compound 1 µM) was > 1 µM. It also gave a viability, T/C (second compound 0.00316 µM, first compound 0.00316 µM) of 92.8%, a viability, T/C (second compound 0.00316 µM, first compound 0.01 µM) of 137% and a viability, T/C (second compound 0.00316 µM, first compound 0.0316 µM) of 93.5%. It also gave a viability, T/C (second compound 0.00316 µM, first compound 0.1 µM) of 72.2%, a viability, T/C (second compound 0.00316 µM, first compound 0.316 µM) of 82.8% and a viability, T/C (second compound 0.00316 µM, first compound 1 µM) of 119%. The viability, T/C (second compound 0.01 µM, first compound 0.00316 µM) was 101%, the viability, T/C (second compound 0.01 µM, first compound 0.01 µM) was 134% and the viability, T/C (second compound 0.01 µM, first compound 0.0316 µM) was 98.2%. It also gave a viability, T/C (second compound 0.01 µM, first compound 0.1 µM) of 63%, a viability, T/C (second compound 0.01 µM, first compound 0.316 µM) of 79.2% and a viability, T/C (second compound 0.01 µM, first compound 1 µM) of 119%. It also gave a viability, T/C (second compound 0.0316 µM, first compound 0.00316 µM) of 163%, a viability, T/C (second compound 0.0316 µM, first compound 0.01 µM) of 144% and a viability, T/C (second compound 0.0316 µM, first compound 0.0316 µM) of 109%. The viability, T/C (second compound 0.0316 µM, first compound 0.1 µM) was 77.1%, the viability, T/C (second compound 0.0316 µM, first compound 0.316 µM) was 61% and the viability, T/C (second compound 0.0316 µM, first compound 1 µM) was 103%. For the same compound, the viability, T/C (second compound 0.1 µM, first compound 0.00316 µM) was 135%, the viability, T/C (second compound 0.1 µM, first compound 0.01 µM) was 124% and the viability, T/C (second compound 0.1 µM, first compound 0.0316 µM) was 83.1%. For the same compound, the viability, T/C (second compound 0.1 µM, first compound 0.1 µM) was 87.4%, the viability, T/C (second compound 0.1 µM, first compound 0.316 µM) was 61.1% and the viability, T/C (second compound 0.1 µM, first compound 1 µM) was 118%. For the same compound, the viability, T/C (second compound 0.316 µM, first compound 0.00316 µM) was 141%, the viability, T/C (second compound 0.316 µM, first compound 0.01 µM) was 136% and the viability, T/C (second compound 0.316 µM, first compound 0.0316 µM) was 85%. The viability, T/C (second compound 0.316 µM, first compound 0.1 µM) was 100%, the viability, T/C (second compound 0.316 µM, first compound 0.316 µM) was 58.8% and the viability, T/C (second compound 0.316 µM, first compound 1 µM) was 116%. The viability, T/C (second compound 1 µM, first compound 0.00316 µM) was 117%, the viability, T/C (second compound 1 µM, first compound 0.01 µM) was 129% and the viability, T/C (second compound 1 µM, first compound 0.0316 µM) was 89.5%. For the same compound, the viability, T/C (second compound 1 µM, first compound 0.1 µM) was 66%, the viability, T/C (second compound 1 µM, first compound 0.316 µM) was 78.2% and the viability, T/C (second compound 1 µM, first compound 1 µM) was 110%.

For `CC(=O)OC12COC1CC(O)C1(C)C(=O)C(O)C3=C(C)C(OC(=O)C(O)C(NC(=O)OC(C)(C)C)c4ccccc4)CC(O)(C(OC(=O)c4ccccc4)C21)C3(C)C` (centres undefined), the viability, T/C (compound 0.0316 µM) was 20.4% [middle of 4 runs], the viability, T/C (compound 0.1 µM) was 20.9% [middle of 4 runs] and the viability, T/C (compound 0.316 µM) was 19.3% [middle of 4 runs]. The viability, T/C (compound 1 µM) was 19.9% [middle of 4 runs], the viability, T/C (compound 3.16 µM) was 24.2% [middle of 4 runs] and the viability, T/C (compound 10 µM) was 27% [middle of 4 runs]. The IC50 (curve of compound) was < 0.0316 µM.
